From patent US20260035365A1, “1H-PYRROLO[3,2-B]PYRIDINE DERIVATIVES AS IRREVERSIBLE INHIBITORS OF MUTANT EGFR FOR THE TREATMENT OF CANCER” (Bayer Aktiengesellschaft, priority 2022, published 2026)

Columns and labels:
[1] = tested on: BA/F3 (insSVD) cells; test: Ba/F3 cell survival assay (Cell Titer-Glo), EGFR-insSVD; format: cell-based; conditions: Mus musculus, BaF3, 48 h, without IL-3, with EGF
How it was run: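 Viability read by CellTiter-Glo luminescence after 48 h compound exposure at 37° C, 4000 cells/well. Retrovirally transduced, puromycin-selected Ba/F3 lines carrying EGFR-insSVD ± T790M grew IL-3-free with 10 ng/mL EGF for 2 days beforehand; compound delivered by 100 nL pin.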

[2] = tested on: BA/F3 (EGFR D770_N771 insSVD T790M) cells; test: Ba/F3 cell survival assay (Cell Titer-Glo), EGFR-insSVD T790M; format: cell-based; conditions: Ba/F3 EGFR-D770-N771ins_SVD; 48 h, without IL-3, with EGF
Method: 293T cells from ATCC were transfected with pBABEpuro expression constructs for WT EGFR or EGFR-insSVD, or EGFR-insSVD T790M, and pCL-Eco packaging vector using Fugene-6 transfection reagent from Promega. Plates were incubated at 37° C. for 48 h. Retrovirus was harvested by filtering the media supernatant through a 0.45 μm filter.
Ba/F3 cells purchased from DSMZ were grown in RPMI+10% FBS+10 ng/mL IL-3 and infected with filtered retroviral supernatant at a 1:2 dilution. Polybrene was added to a concentration of 8 μg/mL, plates were spun for 90 min, and incubated for 16 h at 37° C. 2 μg/mL puromycin was added to the infected cells 24 h after infection and cells were continually grown in the presence of puromycin and 10 ng/mL IL-3. Following stably expressing Ba/F3 cell lines were generated: Ba/F3-EGFR-WT, Ba/F3-EGFR-insSVD, Ba/F3-EGFR-insSVD T790M, (Ba/F3-vector-control).
For cell survival assays, Ba/F3 cells were grown to a density of 1-2 million cells per mL, spun down and resuspended in media without IL-3, and replated at a concentration of 200,000-500,000 cells per mL. The cells ectopically expressing WT EGFR, EGFR-insSVD, or EGFR-insSVD T790M were plated with 10 ng/mL Millipore Culture grade EGF. The cells ectopically expressing pBABEpuro empty vector were plated with 10 ng/mL IL-3.
2 days later, cells were plated in 50 μL in a 384 well plate at a concentration of 4000 cells per well for cells assayed in the absence of IL-3 and 2000 cells per well for cells assayed in the presence of IL-3. 100 nL of compound was added to each well using a 100 nL pin head, and plates were incubated at 37° C. for 48 h.
Cell viability was measured by adding 20 μL of Cell Titer-Glo Luminescent Cell Viability Reagent diluted 1:3 in PBS. Plates were sealed with Perkin Elmer Top-Seal, inverted several times to mix, and immediately centrifuged at 1000 rpm for 2 min. Plates were incubated in low light conditions for 8-10 min and luminescence was measured.

[3] = biological target: mutEGFR (D770_N771insSVD) (Homo sapiens, UniProt P00533, INS767SVD); test: Exon20-mutant-EGFR (D770_N771insSVD) TR-FRET kinase assay; format: biochemical; conditions: 2 mM ATP, 15 min preincubation
Chain of mutEGFR (D770_N771insSVD) (P00533 with tags, fused parts or gaps INS767SVD limits assumed): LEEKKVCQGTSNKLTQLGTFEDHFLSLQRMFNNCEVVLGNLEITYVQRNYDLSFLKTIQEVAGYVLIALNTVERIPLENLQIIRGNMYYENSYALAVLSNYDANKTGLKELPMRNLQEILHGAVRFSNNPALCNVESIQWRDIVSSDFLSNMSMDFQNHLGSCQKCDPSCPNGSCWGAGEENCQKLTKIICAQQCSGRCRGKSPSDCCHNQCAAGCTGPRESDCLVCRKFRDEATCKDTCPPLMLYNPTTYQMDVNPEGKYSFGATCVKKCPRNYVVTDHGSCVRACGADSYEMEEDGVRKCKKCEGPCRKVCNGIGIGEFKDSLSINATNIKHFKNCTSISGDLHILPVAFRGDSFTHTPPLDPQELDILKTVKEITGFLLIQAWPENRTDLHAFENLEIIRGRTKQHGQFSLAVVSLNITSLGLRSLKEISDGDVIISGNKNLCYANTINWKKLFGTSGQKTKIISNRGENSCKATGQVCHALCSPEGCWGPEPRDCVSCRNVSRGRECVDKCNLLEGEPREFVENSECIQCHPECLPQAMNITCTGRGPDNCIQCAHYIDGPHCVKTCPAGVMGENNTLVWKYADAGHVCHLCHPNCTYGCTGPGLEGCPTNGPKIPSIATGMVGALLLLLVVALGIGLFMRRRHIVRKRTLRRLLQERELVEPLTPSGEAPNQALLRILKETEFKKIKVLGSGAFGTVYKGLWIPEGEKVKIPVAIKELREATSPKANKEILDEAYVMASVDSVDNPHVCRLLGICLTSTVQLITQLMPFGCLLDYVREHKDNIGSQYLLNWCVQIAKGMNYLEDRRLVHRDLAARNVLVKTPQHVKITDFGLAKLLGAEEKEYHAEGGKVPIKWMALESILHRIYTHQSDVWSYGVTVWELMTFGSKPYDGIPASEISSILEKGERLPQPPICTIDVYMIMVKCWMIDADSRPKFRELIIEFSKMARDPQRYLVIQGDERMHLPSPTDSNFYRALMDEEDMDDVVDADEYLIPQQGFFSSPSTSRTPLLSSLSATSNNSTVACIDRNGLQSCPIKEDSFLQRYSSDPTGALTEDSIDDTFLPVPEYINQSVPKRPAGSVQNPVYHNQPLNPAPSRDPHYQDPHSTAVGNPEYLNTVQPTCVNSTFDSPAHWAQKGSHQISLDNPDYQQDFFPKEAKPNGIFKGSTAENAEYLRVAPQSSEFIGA
How it was run: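 GST-fused human EGFR fragment R669-A1210 carrying the SVD insertion, Sf9-expressed, typically 15 pg/μl, was preincubated with compound for 15 min at 22° C in pH 7.0 Hepes/MgCl2 buffer. Phosphorylation was read by HTRF (665/620 nm ratio), normalised to no-inhibitor and no-enzyme controls.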

[4] = biological target: mutEGFR (D770_N771insNPG, T790); test: mutEGFR (D770_N771insNPG, T790) kinase assay; format: biochemical, human
Chain of mutEGFR (D770_N771insNPG, T790) (P00533 with tags, fused parts or gaps INS770NPG limits assumed): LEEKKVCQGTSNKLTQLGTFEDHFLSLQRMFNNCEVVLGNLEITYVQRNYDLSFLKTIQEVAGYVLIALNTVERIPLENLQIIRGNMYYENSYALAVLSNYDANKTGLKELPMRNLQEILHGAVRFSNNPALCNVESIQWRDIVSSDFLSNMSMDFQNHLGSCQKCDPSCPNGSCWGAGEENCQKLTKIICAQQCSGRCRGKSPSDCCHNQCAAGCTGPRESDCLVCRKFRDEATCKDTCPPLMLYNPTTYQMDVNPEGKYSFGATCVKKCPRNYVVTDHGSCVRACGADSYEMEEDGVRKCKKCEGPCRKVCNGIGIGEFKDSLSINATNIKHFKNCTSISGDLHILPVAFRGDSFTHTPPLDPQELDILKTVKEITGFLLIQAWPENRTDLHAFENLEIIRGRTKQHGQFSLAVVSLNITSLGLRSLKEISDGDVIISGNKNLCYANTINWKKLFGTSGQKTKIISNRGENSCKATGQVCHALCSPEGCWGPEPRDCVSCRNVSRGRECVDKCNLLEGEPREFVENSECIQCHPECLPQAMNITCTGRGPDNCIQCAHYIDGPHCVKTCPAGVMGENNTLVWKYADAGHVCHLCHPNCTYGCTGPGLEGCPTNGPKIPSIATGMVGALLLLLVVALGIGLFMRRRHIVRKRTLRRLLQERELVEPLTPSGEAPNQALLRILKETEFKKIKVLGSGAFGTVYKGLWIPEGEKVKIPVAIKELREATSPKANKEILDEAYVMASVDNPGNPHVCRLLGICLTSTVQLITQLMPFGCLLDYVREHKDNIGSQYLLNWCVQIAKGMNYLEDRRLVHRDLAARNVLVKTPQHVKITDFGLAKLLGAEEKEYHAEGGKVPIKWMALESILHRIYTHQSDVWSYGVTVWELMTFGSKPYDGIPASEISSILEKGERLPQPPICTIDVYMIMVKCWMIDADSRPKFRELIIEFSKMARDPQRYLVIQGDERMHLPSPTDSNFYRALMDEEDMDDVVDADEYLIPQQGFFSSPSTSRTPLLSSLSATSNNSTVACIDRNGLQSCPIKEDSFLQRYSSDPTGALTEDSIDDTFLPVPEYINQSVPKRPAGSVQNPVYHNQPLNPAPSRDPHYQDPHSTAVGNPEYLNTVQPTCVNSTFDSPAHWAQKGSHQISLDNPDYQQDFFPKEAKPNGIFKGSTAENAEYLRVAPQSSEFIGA

Compound `C=CC(=O)N1CCC[C@H]1COc1cnccc1-c1[nH]c2cccnc2c1-c1cccc(Cl)c1` [Example 41, 1-{(2S)-2-[({4-[3-(3-chlorophenyl)-1H-pyrrolo[3,2-b]pyridin-2-yl]pyridin-3-yl}oxy)methyl]pyrrolidin-1-yl}prop-2-en-1-one] has an IC50 [1] of 25.9 nM, an IC50 [2] of 782 nM and an IC50 [3] of 0.319 nM. It also gave an IC50 [4] of 0.988 nM.

Work on `C=CC(=O)N1CCC[C@H]1COc1cnccc1-c1[nH]c2cccnc2c1-c1cc(Cl)ccc1F` [Example 42, 1-{(2S)-2-[({4-[3-(5-chloro-2-fluorophenyl)-1H-pyrrolo[3,2-b]pyridin-2-yl]pyridin-3-yl}oxy)methyl]pyrrolidin-1-yl}prop-2-en-1-one] yielded an IC50 [1] of 44.7 nM, an IC50 [2] of 3640 nM and an IC50 [3] of 1.11 nM. For the same compound, the IC50 [4] was 2.84 nM.

For `C=CS(=O)(=O)N1C[C@@H](C)C[C@H]1COc1cnccc1-c1[nH]c2cccnc2c1-c1ccccc1` [Example 111, 2-(3-{[(2S,4S)-1-(ethenesulfonyl)-4-methylpyrrolidin-2-yl]methoxy}pyridin-4-yl)-3-phenyl-1H-pyrrolo[3,2-b]pyridine], the IC50 [1] was 10.9 nM, the IC50 [2] was 77.7 nM and the IC50 [3] was 0.135 nM. The IC50 [4] was 0.33 nM.
